The target in one data set is T1, CYP1A2 (Homo sapiens, UniProt P05177).
T1 construct: from tissue; host or cells: human liver microsomes
T1 sequence (P05177 1-516): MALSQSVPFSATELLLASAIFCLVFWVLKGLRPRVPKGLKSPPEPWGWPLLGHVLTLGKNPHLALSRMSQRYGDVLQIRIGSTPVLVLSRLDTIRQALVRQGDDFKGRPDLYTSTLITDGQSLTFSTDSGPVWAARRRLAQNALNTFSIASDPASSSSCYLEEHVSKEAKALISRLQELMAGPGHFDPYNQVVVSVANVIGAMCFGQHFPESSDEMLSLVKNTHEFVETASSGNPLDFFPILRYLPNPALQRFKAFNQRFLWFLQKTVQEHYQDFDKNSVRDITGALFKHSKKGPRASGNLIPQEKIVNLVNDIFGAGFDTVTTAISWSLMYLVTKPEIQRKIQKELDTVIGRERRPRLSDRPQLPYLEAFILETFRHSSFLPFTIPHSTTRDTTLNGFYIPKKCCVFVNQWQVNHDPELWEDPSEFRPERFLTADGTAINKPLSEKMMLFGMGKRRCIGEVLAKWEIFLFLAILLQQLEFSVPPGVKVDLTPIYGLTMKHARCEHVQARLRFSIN
The experiment in a line: Inhibition of human liver microsomal cytochrome P450 isoenzyme CYP1A2. Type of data set: in vitro ADME. Particulars: human liver microsomes. On the procedure:
(§1) Objective: The inhibitory effect of the test compound on the activity of human liver microsomal cytochrome P450 isoenzymes (CYP1A2, CYP2C9, CYP2C19, CYP2D6 and CYP3A4) was determined. […]
Background: Liver microsomes are vesicles of endoplasmic reticulum, rich in cytochrome P450 enzymes.

For the next data set, the target named is T2, CYP3A4 (Homo sapiens, UniProt P08684).
T2 construct: from tissue; host or cells: human liver microsomes
The experiment in a line: Inhibition of human liver microsomal cytochrome P450 isoenzyme CYP3A4. Type of data set: in vitro ADME. Particulars: human liver microsomes. On the procedure:
as §1

The nature of data set [1]: Metabolic stability in liver microsomes of SD rats. Particulars: rat. In kind it is in vitro ADME. The method, then: Objective: The metabolic stability of the tested compound of formula (I) in liver microsomes of rats, beagle dogs and cynomolgus monkeys was determined. […]
Data set [2] in a line: Liver-to-blood ratio in Balb/c mice orally administered with the test compound. The note with it: Balb/c female mice, oral administration, 3 mg/kg. In kind it is in vivo. The method, then: Experiment on the Liver-to-Blood Ratio in Balb/c Mice Orally Administered with the Test Compound The compound of formula (I) was mixed with an aqueous solution containing […] polyethylene glycol-15 hydroxystearate, and the mixture was vortexed and sonicated to prepare a 0.3 mg/mL clear solution for later use. Balb/c female mice aged 7 to 10 weeks were orally administered with the candidate compound solution at a dose of 3 mg/kg. Whole blood at a certain time point was collected and plasma was prepared. Liver tissues at the corresponding time point were collected to prepare a tissue homogenate. Drug concentration was analyzed by LC-MS/MS and pharmacokinetic parameters were calculated with Phoenix WinNonlin software.

T2 sequence (P08684 whole entry): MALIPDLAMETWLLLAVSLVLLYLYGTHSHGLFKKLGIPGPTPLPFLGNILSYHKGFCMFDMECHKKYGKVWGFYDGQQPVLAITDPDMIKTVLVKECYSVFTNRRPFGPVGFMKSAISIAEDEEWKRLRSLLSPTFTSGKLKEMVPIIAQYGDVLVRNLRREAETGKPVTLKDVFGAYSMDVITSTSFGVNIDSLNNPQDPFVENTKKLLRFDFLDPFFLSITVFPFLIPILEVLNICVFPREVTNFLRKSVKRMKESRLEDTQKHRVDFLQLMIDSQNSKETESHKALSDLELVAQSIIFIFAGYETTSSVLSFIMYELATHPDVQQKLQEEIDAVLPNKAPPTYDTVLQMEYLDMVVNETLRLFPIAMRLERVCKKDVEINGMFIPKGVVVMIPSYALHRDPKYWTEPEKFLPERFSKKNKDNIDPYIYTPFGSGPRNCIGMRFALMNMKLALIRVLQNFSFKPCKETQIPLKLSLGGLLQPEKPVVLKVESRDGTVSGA

The IC50 is the midpoint of a concentration-inhibition curve. What is called microsomal CLint is the capacity of the preparation to metabolise the compound, expressed as a volume cleared per time. The term CLint scaled denotes the rate of metabolic loss divided by the concentration. The low end stands for greater metabolic stability, the high end for faster metabolism. A word on the half-life: it is how long it takes for the measured level to halve. As usually defined, the AUC(0-t) is exposure summed from dosing to a finite time, without extrapolation to infinity. For the molecule `CC1(NC(=O)C(=O)c2c(Cl)c(C(=O)Nc3cc(F)c(F)c(F)c3)c3n2CCC3)CCC(CC(=O)O)CC1` (centres unmarked) [Compound of formula (I)], the IC50 on CYP1A2 and at CYP3A4 was more than 50 µM in each case. For the same molecule, the microsomal CLint at 1 μM in data set [1] (SD, microsomes) is less than 9.6 µL/min/mg. The CLint scaled at 1 μM in data set [1] (SD rats liver microsomes) is less than 17.3 mL/min/kg. In addition, in data set [1] (SD rats liver microsomes, 1 μM compound, 0.5 mg/mL), the half-life at 1 μM was more than 2.42 h. The AUC0-last in data set [2] (Liver) is 86036 nmol·h/kg. Also, in data set [2] (mouse, liver / plasma, read-out: AUC ratio (L/P) Liver/plasma exposure ratio), the Kp was found to be 24.7. Further, in data set [2] (mouse, Plasma), the area under the curve AUC(0-t) worked out at 3.48 µM·h.

Values taken from US20230026869A1, “CRYSTAL FORM OF NUCLEOPROTEIN INHIBITOR AND USE THEREOF” (CHIA TAI TIANQING PHARMACEUTICAL GROUP CO., LTD., priority 2019, published 2023).
